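Growth conditions: 96-well plates. Treatment: test compound, 48 hours, 5 concentrations. Analysis: linear interpolation between bracketing concentrations; unreached endpoints set to highest concentration. Abbreviation: GI50, concentration required for 50% inhibition of growth.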 The source made the active and inactive calls. No stated cut-off is given here; in the data, active = GI50 up to about 1.1 µM and inactive = higher.
Assays:
Test in all cases: NCI-60 cell line screen, 48 h
A498 = tested on: A498
BT-549 = tested on: BT-549
CAKI-1 = tested on: CAKI-1
HCT-15 = tested on: HCT-15
HL-60 = tested on: HL-60
HT-29 = tested on: HT-29
NCI-H460 = tested on: NCI-H460
NCI/ADR-RES = tested on: NCI/ADR-RES
OVCAR-4 = tested on: OVCAR-4
OVCAR-5 = tested on: OVCAR-5
PC-3 = tested on: PC-3
SF-268 = tested on: SF-268
SNB-19 = tested on: SNB-19
SR = tested on: SR
TK-10 = tested on: TK-10
UACC-62 = tested on: UACC-62
CCRF-CEM = tested on: CCRF-CEM
COLO 205 = tested on: COLO 205
SK-OV-3 = tested on: SK-OV-3
SNB-75 = tested on: SNB-75

Row | SMILES | GI50 (A498) | GI50 (BT-549) | GI50 (CAKI-1) | GI50 (HCT-15) | GI50 (HL-60) | GI50 (HT-29) | GI50 (NCI-H460) | GI50 (NCI/ADR-RES) | GI50 (OVCAR-4) | GI50 (OVCAR-5) | GI50 (PC-3) | GI50 (SF-268) | GI50 (SNB-19) | GI50 (SR) | GI50 (TK-10) | GI50 (UACC-62) | GI50 (CCRF-CEM) | GI50 (COLO 205) | GI50 (SK-OV-3) | GI50 (SNB-75)
1 | Nc1nc(Cc2ccccc2)nc(Cc2ccccc2)c1-c1ccccc1 | 26 µM (inactive) | 20.6 µM (inactive) | 39.5 µM (inactive) | 21.5 µM | 24 µM (inactive) | 21.9 µM (inactive) | 28.2 µM (inactive) | 16.7 µM (inactive) | 38.5 µM (inactive) | 29.1 µM (inactive) | 23.1 µM (inactive) | 31 µM (inactive) | 75.7 µM (inactive) | 20.8 µM (inactive) | 56.9 µM (inactive) | 18 µM (inactive) |  |  |  | 
2 | O=C1CC(O)c2c(Cl)sc(Cl)c21 (stereo not drawn) | 22.1 µM (inactive) | 16 µM (inactive) | 3.3 µM (inactive) | 3.39 µM |  | 2.88 µM (inactive) | 22.8 µM (inactive) | 22.9 µM (inactive) | 18.9 µM (inactive) | 17 µM (inactive) | 13.3 µM (inactive) | 3.66 µM (inactive) | 21.7 µM (inactive) | 2.71 µM (inactive) | 15.9 µM (inactive) | 14.7 µM (inactive) | 1.7 µM (inactive) | 5.12 µM (inactive) | 22.5 µM (inactive) | 14.4 µM (inactive)
3 | O=C(O)c1nc2cc(C(F)(F)F)ccc2nc1Nc1ccc(Cl)c(Cl)c1 | 15.8 µM (inactive) | 11.1 µM (inactive) | 28.4 µM (inactive) | 12.3 µM |  | 15.3 µM (inactive) | 13.5 µM (inactive) | 10.5 µM (inactive) | 21.2 µM (inactive) | 17.7 µM (inactive) | 4.3 µM (inactive) | 16.8 µM (inactive) | 8.95 µM (inactive) | 21.6 µM (inactive) | 14.2 µM (inactive) | 12.3 µM (inactive) | > 10 µM (inactive) | 16.6 µM (inactive) | 16.7 µM (inactive) | 20.5 µM (inactive)
4 | C=CC[C@H](O)[C@@](NC(=O)OCc1ccccc1)(Sc1ccc(C)cc1)C(F)(F)F | 65.3 µM (inactive) | 10.9 µM (inactive) | 24.7 µM (inactive) | 24.9 µM | 11.5 µM (inactive) | 23.9 µM (inactive) | 30.7 µM (inactive) | 31.1 µM (inactive) | 28.2 µM (inactive) | 28.3 µM (inactive) | 29.8 µM (inactive) | 18.1 µM (inactive) | 32.6 µM (inactive) | 20.1 µM (inactive) | 33.8 µM (inactive) | 30.7 µM (inactive) |  | 20.3 µM (inactive) |  | 
5 | CCOC(=O)CNC(=O)C(CSCC1C(=O)Nc2ccccc21)NC(=O)CCC(N)C(=O)OCC (stereo not drawn) | 3.12 µM (inactive) | 2.44 µM (inactive) | 0.745 µM (active) | 1.04 µM | 2.36 µM (inactive) | 1.55 µM (inactive) | 3.28 µM (inactive) | 1.08 µM (active) | 2.78 µM (inactive) | 1.84 µM (inactive) | 1.88 µM (inactive) | 1.86 µM (inactive) | 7.46 µM (inactive) | 0.24 µM (active) | 1.62 µM (inactive) | 1.57 µM (inactive) | 0.269 µM (active) | 1.24 µM (inactive) |  | 
6 | Cc1cccc(/N=N/c2ccc(/N=N/c3c(O)ccc4ccccc34)cc2C)c1 |  | > 100 µM (inactive) | 40.2 µM (inactive) | > 100 µM | 33.5 µM (inactive) | > 100 µM (inactive) | > 100 µM (inactive) | 13.4 µM (inactive) | > 100 µM (inactive) | > 100 µM (inactive) | 88.3 µM (inactive) | > 100 µM (inactive) | 38.2 µM (inactive) | 21.4 µM (inactive) | > 100 µM (inactive) | 72.4 µM (inactive) | > 100 µM (inactive) | > 100 µM (inactive) | 28.4 µM (inactive) | 0.144 µM (active)
